Source: patent publication US11040031B2, “Pyrazole derivatives as MALT1 inhibitors” (Janssen Pharmaceutica NV, priority 2018, dated 2021)
Read-outs that look alike come from different tables or passages of the source.

Tests used:
[1] = test system: OCI-Ly3 ABC-DLBCL cell line; experiment: 4-day proliferation assay OCI-Ly3; format: cell-based; conditions: Homo sapiens, read-out: Anti-proliferation: OCI-LY-3 IC50
Method: To assess anti-proliferative effects, MALT1 inhibitor test compounds were tested in 4-day proliferation assays using three different DLBCL cell lines.
Cells should be kept between 0.5-2.5 million cells per mL during culturing and cells should be supplemented every 2-3 days with fresh 50 μM beta-mercaptoenthanol. No beta-mercaptoethanol is used during the proliferation assay. OCI-Ly7 cells were propagated in IMDM (ThermoFisher) supplemented with 10% fetal bovine serum (HyClone), 2 mM L-glutamine (Sigma Aldrich) and 50 μg/mL Gentamycin. Cell passage numbers should not exceed 30.
10,000 TMD8, 10,000 OCI-Ly3 or 2,000 OCI-Ly7 cells were seeded in 100 μL media per well and incubated for 4 days at 37° C. and 5% CO2. Cell plating numbers were chosen based on growth curves to ensure linear cell growth. After 4 days of incubation 50 μl CellTiterGLO reagent (Promega) were added to each well and luminescence was measured on the Envision after 10 min of incubation at room temperature.

[2] = target: T1, full-length MALT1 protein (Strep-MALT1(1-824)-His) (Homo sapiens, UniProt Q9UDY8); experiment: biochemical;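 further: fluorogenic LRSR-AMC substrate cleavage by MALT1, 50 min compound preincubation then 4 h reaction at RT, 11-point dilution from 30 µM, scaled between enzyme-free and untreated enzyme controls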
T1 sequence (Q9UDY8 1-824): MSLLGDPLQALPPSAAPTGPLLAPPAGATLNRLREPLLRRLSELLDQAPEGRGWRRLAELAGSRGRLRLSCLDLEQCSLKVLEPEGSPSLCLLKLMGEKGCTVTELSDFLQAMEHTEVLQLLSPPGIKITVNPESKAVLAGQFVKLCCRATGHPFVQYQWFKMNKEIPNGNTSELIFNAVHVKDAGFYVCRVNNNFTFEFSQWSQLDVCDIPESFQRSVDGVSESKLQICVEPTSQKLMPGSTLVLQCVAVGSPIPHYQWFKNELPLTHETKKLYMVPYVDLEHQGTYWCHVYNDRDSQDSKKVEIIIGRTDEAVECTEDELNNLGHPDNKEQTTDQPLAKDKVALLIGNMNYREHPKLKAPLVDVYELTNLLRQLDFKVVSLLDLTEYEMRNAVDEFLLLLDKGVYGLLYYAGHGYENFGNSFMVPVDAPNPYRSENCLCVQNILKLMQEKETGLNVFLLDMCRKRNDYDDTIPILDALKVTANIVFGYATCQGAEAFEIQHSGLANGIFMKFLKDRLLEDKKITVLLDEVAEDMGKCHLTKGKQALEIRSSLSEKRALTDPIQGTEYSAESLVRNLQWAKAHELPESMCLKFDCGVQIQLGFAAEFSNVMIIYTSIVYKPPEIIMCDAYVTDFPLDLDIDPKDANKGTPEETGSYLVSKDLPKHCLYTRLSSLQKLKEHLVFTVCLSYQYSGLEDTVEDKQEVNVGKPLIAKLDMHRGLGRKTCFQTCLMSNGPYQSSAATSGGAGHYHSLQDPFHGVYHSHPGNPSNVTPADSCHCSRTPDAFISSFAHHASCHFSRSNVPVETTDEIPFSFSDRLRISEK
Method: MALT1 protease activity was assessed in an in vitro assay using a tetrapeptide as substrate and full-length MALT1 protein (Strep-MALT1(1-824)-His) purified from baculovirus-infected insect cells. The tetrapeptide LRSR is coupled to AMC (7-amino-4-methylcoumarin) and provides a quenched, fluorescent substrate for the MALT1 protease (SM Biochemicals). Cleavage of AMC from the Arginine residue results in an increase in coumarin fluorescence measured at 460 nm (excitation 355 nm). […] Test compounds were spotted at 50 nL in 100% DMSO per well of a black 384-Proxiplate (Perkin Elmer). Test compound concentrations ranged from 30 μM to 0.5 nM using 11 dilution steps (1:3). Background signal was measured from control wells containing assay buffer without enzyme which functions as low control (LC). High control (HC) values were generated using the reaction with enzyme but no compound treatment. Compounds were pre-incubated with MALT1 enzyme for 50 minutes at RT. Substrate was added subsequently and fluorescence was measured in Labsystems fluoroskan at excitation 355 nm and emission 460 nm to determine time 0. The reaction was subsequently incubated for 4 h at RT and fluorescence was measured. […] The enzyme reaction was linear during the 4 h incubation period.
IC50 values were calculated using the following formula (Z prime should be >0.5):
From this an IC50 value (inhibitory concentration causing 50% inhibition) can be obtained. An estimate of the slope of the plot in terms of the Hill coefficient was also obtained.
With y=estimated response • UB=upper bound • LB=lower bound • h=hill

[3] = test system: Secretion of IL6 by OCI-LY3 ABC-DLBCL cells; experiment: Human IL6 Mesoscale assay (OCI-LY3); format: cell-based; conditions: read-out: Human IL6 Mesoscale assay (OCI-LY3)
Method: (§1) NFKB signaling regulates the secretion of multiple cytokines, including IL6 and IL10. Secretion of the cytokines IL6 and IL10 by TMD8 or OCI-LY3 ABC-DLBCL cells was measured using a mesoscale assay.
(§2) Cell passage number should not exceed 30. Cells should be kept between 0.5-2.5 million cells per mL during culturing and cells should be supplemented every 2-3 days with fresh 50 µM beta-mercaptoenthanol. No beta-mercaptoethanol was used during the mesoscale assay.
(§3) DMSO control wells were used to determine the maximum signal (High Control (HC)). […] Compounds and cells were incubated for 24 h at 37° C. and 5% CO2 (assay volume is 150 μL). After 24 h of incubation 50 μL of the supernatant was transferred to a MSD plate (V-Plex Proinflammation Panel 1 (human) kit, Mesoscale (MSD)) and incubated for 2 h with vigorous shaking (600 rpm) at room temperature. Following incubation, plates were washed 3× with PBS+0.05% Tween-20 and 25 μL detection antibody solution (IL6 & IL10 antibodies in diluent 3 (MSD)) was added per well followed by 2 h of incubation with vigorous shaking (600 rpm) at room temperature. After 3× washes with PBS+0.05% Tween-20, plates were incubated with 150 μL 2× Read Buffer T and read on SECTOR imager.

[4] = test system: Secretion of IL10 by OCI-LY3 ABC-DLBCL cells; experiment: Human IL10 Mesoscale assay (OCI-LY3); format: cell-based; conditions: read-out: Human IL10 Mesoscale assay (OCI-LY3)
Method: as §1, §2, §3

[5] = 96 h, 10,000 OCI-Ly3 cells per well, 4 days, CellTiterGLO
[6] = OCI-LY3 cells, 24 h incubation, supernatant, MSD V-Plex

Row | Structure (SMILES) | IC50 [1, 5] [nM] | IC50 [2] [nM] | further results
1 | Cc1ccccc1-n1ncc(C(=O)Nc2cnc(-n3nccn3)c(C#N)c2)c1C(F)(F)F [Cpd 55, N-(5-cyano-6-(2H-1,2,3-triazol-2-yl)pyridin-3-yl)-1-(o-tolyl)-5-(trifluoromethyl)-1H-pyrazole-4-carboxamide] | 3390 | 62 | –
2 | N#Cc1cc(NC(=O)c2cnn(-c3ccc(F)cc3Br)c2C(F)(F)F)cnc1-n1nccn1 [Cpd 50, 1-(2-bromo-4-fluorophenyl)-N-(5-cyano-6-(2H-1,2,3-triazol-2-yl)pyridin-3-yl)-5-(trifluoromethyl)-1H-pyrazole-4-carboxamide] | 1070 | 54 | –
3 | N#Cc1cc(NC(=O)c2cnn(-c3cccc(F)c3Cl)c2C(F)(F)F)cnc1-n1nccn1 [Cpd 61, 1-(2-chloro-3-fluorophenyl)-N-(5-cyano-6-(2H-1,2,3-triazol-2-yl)pyridin-3-yl)-5-(trifluoromethyl)-1H-pyrazole-4-carboxamide] | 1860 | 78 | –
4 | O=C(Nc1cnc(-n2nccn2)c(Cl)c1)c1cnn(-c2ccc(F)cc2Br)c1C(F)(F)F [Cpd 83, 1-(2-bromo-4-fluorophenyl)-N-(5-chloro-6-(2H-1,2,3-triazol-2-yl)pyridin-3-yl)-5-(trifluoromethyl)-1H-pyrazole-4-carboxamide] | 2240 | 129 | –
5 | O=C(Nc1cnc(-n2nccn2)c(Cl)c1)c1cnn(-c2cccc(F)c2Cl)c1C(F)(F)F [Cpd 82, 1-(2-chloro-3-fluorophenyl)-N-(5-chloro-6-(2H-1,2,3-triazol-2-yl)pyridin-3-yl)-5-(trifluoromethyl)-1H-pyrazole-4-carboxamide] | 3390 | 162 | –
6 | COc1cc(F)ccc1-n1ncc(C(=O)Nc2cnc(-n3nccn3)c(C#N)c2)c1C(F)(F)F [Cpd 54, N-(5-cyano-6-(2H-1,2,3-triazol-2-yl)pyridin-3-yl)-1-(4-fluoro-2-methoxyphenyl)-5-(trifluoromethyl)-1H-pyrazole-4-carboxamide] | 1620 | 89 | –
7 | Cc1cc(F)ccc1-n1ncc(C(=O)Nc2cnc(-n3nccn3)c(C#N)c2)c1C(F)(F)F [Cpd 64, N-(5-cyano-6-(2H-1,2,3-triazol-2-yl)pyridin-3-yl)-1-(4-fluoro-2-methylphenyl)-5-(trifluoromethyl)-1H-pyrazole-4-carboxamide] | 1550 | 54 | –
8 | N#Cc1cc(NC(=O)c2cnn(-c3ccc(F)c(F)c3F)c2C(F)(F)F)cnc1-n1nccn1 [Cpd 97, N-(5-cyano-6-(2H-1,2,3-triazol-2-yl)pyridin-3-yl)-5-(trifluoromethyl)-1-(2,3,4-trifluorophenyl)-1H-pyrazole-4-carboxamide] | – | 263 | IC50 [3, 6]: 151 nM; IC50 [4, 6]: 95 nM

Continued, in another order:

Row | IC50 [1, 5] [nM] | IC50 [2] [nM] | Structure (SMILES) | further results
9 | 407 | 288 | O=C(Nc1cnc(-n2nccn2)c(Cl)c1)c1cnn(-c2ccc(F)cc2F)c1C(F)(F)F [Cpd 117, N-(5-chloro-6-(2H-1,2,3-triazol-2-yl)pyridin-3-yl)-1-(2,4-difluorophenyl)-5-(trifluoromethyl)-1H-pyrazole-4-carboxamide] | –
10 | 5500 | 155 | O=C1NCc2c1cccc2-n1ncc(C(=O)Nc2cnc(-n3nccn3)c(Cl)c2)c1C(F)(F)F [Cpd 133, N-(5-chloro-6-(2H-1,2,3-triazol-2-yl)pyridin-3-yl)-1-(1-oxoisoindolin-4-yl)-5-(trifluoromethyl)-1H-pyrazole-4-carboxamide] | –
11 | 1410 | 2400 | N#Cc1cc(NC(=O)c2cnn(-c3cccc4c3CCNC4)c2C(F)(F)F)cnc1-n1nccn1 [Cpd 129, N-(5-cyano-6-(2H-1,2,3-triazol-2-yl)pyridin-3-yl)-1-(1,2,3,4-tetrahydroisoquinolin-5-yl)-5-(trifluoromethyl)-1H-pyrazole-4-carboxamide] | –
12 | – | 457 | Cc1cc(F)cnc1-n1ncc(C(=O)Nc2cnc(-n3nccn3)c(Cl)c2)c1C(F)(F)F [Cpd 112, N-(5-chloro-6-(2H-1,2,3-triazol-2-yl)pyridin-3-yl)-1-(5-fluoro-3-methylpyridin-2-yl)-5-(trifluoromethyl)-1H-pyrazole-4-carboxamide] | IC50 ([1]; OCI-Ly3, 96 h): 724 nM
13 | – | 209 | Cc1cnccc1-n1ncc(C(=O)Nc2cnc(-n3nccn3)c(Cl)c2)c1C(F)(F)F [Cpd 158, N-(5-chloro-6-(2H-1,2,3-triazol-2-yl)pyridin-3-yl)-1-(3-methylpyridin-4-yl)-5-(trifluoromethyl)-1H-pyrazole-4-carboxamide] | IC50 ([3]; OCI-Ly3, 24 h): 275 nM; IC50 ([4]; OCI-Ly3, 24 h): 302 nM
14 | – | 282 | Nc1ccc(Cl)c(-n2ncc(C(=O)Nc3cnc(-n4nccn4)c(Cl)c3)c2C(F)(F)F)n1 [Cpd 183, 1-(6-amino-3-chloropyridin-2-yl)-N-(5-chloro-6-(2H-1,2,3-triazol-2-yl)pyridin-3-yl)-5-(trifluoromethyl)-1H-pyrazole-4-carboxamide] | IC50 [3, 6]: 269 nM; IC50 [4, 6]: 195 nM
15 | – | 38 | Cc1cc(C#N)ccc1-n1ncc(C(=O)Nc2cnc(-n3nccn3)c(C#N)c2)c1C(F)(F)F [Cpd 126, 1-(4-cyano-2-methylphenyl)-N-(5-cyano-6-(2H-1,2,3-triazol-2-yl)pyridin-3-yl)-5-(trifluoromethyl)-1H-pyrazole-4-carboxamide] | IC50 ([3]; OCI-Ly3, 24 h): 76 nM; IC50 ([4]; OCI-Ly3, 24 h): 68 nM
16 | – | 58 | N#Cc1ccc(-n2ncc(C(=O)Nc3cnc(-n4nccn4)c(Cl)c3)c2C(F)(F)F)nc1N [Cpd 140, 1-(6-amino-5-cyanopyridin-2-yl)-N-(5-chloro-6-(2H-1,2,3-triazol-2-yl)pyridin-3-yl)-5-(trifluoromethyl)-1H-pyrazole-4-carboxamide] | IC50 [3, 6]: 132 nM; IC50 [4, 6]: 123 nM
17 | – | 151 | Cc1cc(F)ccc1-n1ncc(C(=O)Nc2cc(Cl)c(-n3nccn3)nc2C)c1C(F)(F)F [Cpd 172, N-(5-chloro-2-methyl-6-(2H-1,2,3-triazol-2-yl)pyridin-3-yl)-1-(4-fluoro-2-methylphenyl)-5-(trifluoromethyl)-1H-pyrazole-4-carboxamide] | IC50 [3, 6]: 200 nM; IC50 [4, 6]: 178 nM
18 | – | 110 | Cc1c(-n2ncc(C(=O)Nc3cnc(-n4nccn4)c(C#N)c3)c2C(F)(F)F)ccnc1N [Cpd 143, 1-(2-amino-3-methylpyridin-4-yl)-N-(5-cyano-6-(2H-1,2,3-triazol-2-yl)pyridin-3-yl)-5-(trifluoromethyl)-1H-pyrazole-4-carboxamide] | IC50 ([3]; OCI-Ly3, 24 h): 1050 nM; IC50 ([4]; OCI-Ly3, 24 h): 617 nM
19 | – | 209 | Nc1ccnc(-n2ncc(C(=O)Nc3cnc(-n4nccn4)c(Cl)c3)c2C(F)(F)F)c1Cl [Cpd 119, 1-(4-Amino-3-chloropyridin-2-yl)-N-(5-chloro-6-(2H-1,2,3-triazol-2-yl)pyridin-3-yl)-5-(trifluoromethyl)-1H-pyrazole-4-carboxamide] | IC50 [3, 6]: 282 nM; IC50 [4, 6]: 148 nM
